The subject of series [1] is lower urinary tract obstruction model of rats. Briefly: Test Example 1: urination function in female rat lower urinary tract obstruction model (cystometry, tissue wet weights, survival). The conditions noted are these: 2 weeks. The series is classed as in vivo. An excerpt: A lower urinary tract obstruction model of rats was used as a test system. A test substance was orally administered to the lower urinary tract obstruction model repeatedly over two (2) weeks to examine the action on the urination function in the lower urinary tract obstruction model.
More specifically, the rats (female, Crl:CD(SD), 8-week-old; Charles River Laboratories Japan, Inc.) were operated to form lower urinary tract obstruction and repeatedly received oral administration of the test substance at a frequency of once a day over two (2) weeks. After the completion of the administration, each rat was subjected to bladder catheterization under anesthesia, cystometry under no anesthesia, then cystometry under urethane anesthesia, and euthanasia under deep anesthesia, and the tissues (bladder, kidney) of the rat were extracted or surgically removed. As a normal group, the rats without operation for forming lower urinary tract obstruction were used.
The test system, the test substances, and the dosage are as follows. • Normal group: 0.5 v/v. Polysorbate 80 solution, 10 mL/kg (n=6) • Solvent group (control group): 0.5 v/v % Polysorbate 80 solution, 10 mL/kg (n=15) • Group A: Compound A, 10 mg/kg (n=15) • Group B3: Compound B, 3 mg/kg (n=7) • Group B10: Compound B, 10 mg/kg (n=7)
The residual urine volume, the urination efficiency, and the bladder capacity were measured as follows.
After urination, the residual urine was aspirated from the outlet end of the catheter placed in the bladder to measure the volume (mL) of the residual urine.
After urination, the weight of the voided urine was measured to determine the voided volume (g=mL), and then the urination efficiency was calculated by the following equation: Urination efficiency (%)=[(Voided volume (mL))/(Voided volume (mL)+Residual urine volume (mL))]×100 [Bladder Capacity]
The bladder capacity was calculated from the voided volume and the residual urine volume by the following equation: Bladder capacity(mL)=Voided volume (mL)+Residual urine volume (mL)
Moreover, the wet weight of the extracted bladder and that of the extracted kidney were measured.

The subject of series [2] is model of a urination disorder associated with streptozocin-induced diabetes. As to the kind of experiment: Test Example 6: urination disorder model associated with streptozocin-induced diabetes, compound A versus dutasteride. Type of series: in vivo, rat. Here is the method:
As described below, a model of a urination disorder associated with streptozocin-induced diabetes was prepared as a urination disorder model in accordance with Test Example 4 to evaluate the effects of the compound A and the compound C on a urination disorder. This model has no benign prostatic hyperplasia and is a model of a urination disorder associated with neuropathy and smooth muscle contraction disorder.
The body weights of Rats (male, Crl:CD(SD), 5-week-old; Charles River Laboratories Japan, Inc.) were measured. On the basis of the body weight, the rats were grouped or divided into two (2) groups. The day after the rats were grouped, a fist group received intraperitoneal administration of a citrate buffer (pH 4.5) (10 mL/kg) having a concentration of 0.1 mmol/L, and a second group received intraperitoneal administration of streptozocin (STZ; Sigma-Aldrich) (50 mg/kg). Streptozocin (STZ) was administered in the form of a solution of streptozocin having a concentration of 5 mg/mL in the citrate buffer.
About one (1) week after streptozocin (STZ) was administered, the body weight and the fasting blood glucose were measured. In the streptozocin (STZ) administration group (the second group), individuals having a fasting blood glucose level of not less than 300 mg/dL were used as animals with induced diabetes. These animals with induced diabetes are a model having no abnormality of the prostate (having no benign prostatic hyperplasia). On the basis of the body weight and the fasting blood glucose level, the animals (models) with induced diabetes were grouped or divided into three (3) groups by randomized, multivariable block allocation.
To the three model groups with induced diabetes, a 0.5 v/v % Polysorbate 80 solution (0.5% P) (10 mL/kg), the compound A (3 mg/kg), and the compound C (dutasteride) (0.3 mg/kg) were orally administered, respectively, wherein the administration schedule in all groups was a frequency of once a day, only on weekdays, over four (4) weeks. Moreover, to the above-mentioned first group, a 0.5 v/v % Polysorbate 80 solution (0.5% P) (10 mL/kg) was orally administered in the same administration schedule (normal group). On the last day of administration, a cannula was inserted into and secured to the dome of the bladder under isoflurane anesthesia, and cystometry (Cystometogram, CMG) was conducted in the order of under awake condition and under urethane anesthesia to measure the intravesical pressure, the voided volume, and the residual urine volume. After the completion of the measurement, the blood was collected under deep isoflurane anesthesia, and then the prostate (ventral prostate, dorsolateral prostate) was extracted and each was weighed. Moreover, the blood glucose level in the collected blood was measured.
The test substances and the dosage in the test system (rats having the urination disorder associated with diabetes) are as follows. • Normal group: citrate buffer 10 mL/kg (intraperitoneal administration), 0.5% P 10 mL/kg (oral administration) (n=10) • Solvent group (control group): STZ 50 mg/kg (intraperitoneal administration), 0.5% P 10 mL/kg (oral administration) (n=10) • Group A3: STZ 50 mg/kg (intraperitoneal administration), Compound A 3 mg/kg (oral administration) (n=10) • Group C0.3: STZ 50 mg/kg (intraperitoneal administration), Compound C (dutasteride) 0.3 mg/kg (oral administration) (n=10)
Urination parameter: In the same manner as in Test Example 4, the residual urine volume (mL) and the urination efficiency % were determined as urination parameters in each urination, and the average value of two measurements was taken as a measured value of each individual.
Prostate weight: In the same manner as in Test Example 4, the weight of the prostate (ventral prostate, dorsolateral prostate, and whole) was converted to a tissue weight per 100 g of the body weight. […]

The test system of series [3] is uterine weight associated with rat deciduoma formation. Briefly: Test Example 5: antiprogesterone activity, uterine weight associated with rat deciduoma formation in ovariectomized rats. The series is classed as in vivo. The conditions noted are these: 192 h, Group D: 3 mg/kg oral once a day, 8 days, ovariectomized female rats, compared with solvent group, FIG. 18, read-out: inhibition rate of uterine weight increase (antiprogesterone action). Here is the method: For the compound A and the compound D (mifepristone), the antiprogesterone activity was measured. Specifically, a sex hormone and a test substance were repeatedly administered to ovariectomized rats as a test system to examine the antiprogesterone action (antiprogesterone activity) based on, as an index, the fluctuation of the uterine weight (the inhibitory action relative to the increase of the weight) associated with rat deciduoma formation.
More specifically, rats (female, Crl:CD(SD), 5-week-old: Charles River Laboratories Japan, Inc.) were subjected to ovariectomy, and from one (1) week after the ovariectomy, a high dose estrone or 5 μg/one animal was hypodermically administered to the rats once a day for three (3) days. From the day after one day rest period, the rats received, once a day over eight (8) days, hypodermic administration of a low dose estrone (1 μg/one animal), intramuscular administration of progesterone (6 mg/kg), and oral administration of a test substance. In the middle of the administration, on Day 4 of the start of administration, the rats were subjected to a stimulation treatment of decidualization reaction to the right uterus. The day after the final administration, the uterine weight (right uterine body) was measured (n=6). Group E was subjected to ovariectomy and a stimulation treatment of decidualization reaction but was not subjected to a hormone treatment.
The test substances and the dosage in the test system (ovariectomized rats) are as follows. • Group E: rats with ovariectomy without hormone treatment • 0.5 v/v % Polysorbate 80 solution, 10 mL/kg (n=6) • Solvent group (control group): 0.5 v/v % Polysorbate 80 solution, 10 mL/kg (n=6) • Group A3: Compound A, 3 mg/kg (n=6) • Group A10: Compound A, 10 mg/kg (n=6) • Group A30: Compound A, 30 mg/kg (n=6) • Group D: Compound D (mifepristone), 3 mg/kg (n=6)

The mark [4] stands for this setting: Group C0.3: 0.3 mg/kg oral, 4 weeks, relative to solvent group.

In the case of `CC(=O)O[C@]1(C(C)=O)CC[C@H]2[C@@H]3C=C(Cl)C4=CC(=O)OC[C@]4(C)[C@H]3CC[C@@]21C` [Compound B, 17α-acetoxy-6-chloro-2-oxa-4,6-pregnadiene-3,20-dione, reference compound], the residual urine volume entry in series [1] (Groups B3 and B10: 3 mg/kg and 10 mg/kg oral once a day, vs control group, FIG. 1) is listed as “significantly increased”. Further, the urination efficiency entry in series [1] (Groups B3 and B10: 3 mg/kg and 10 mg/kg oral once a day, vs control group, FIG. 2) is on record as “reduced”. The bladder capacity entry in series [1] (Groups B3 and B10: 3 mg/kg and 10 mg/kg oral once a day, vs control group, FIG. 3) was “significantly increased”. Moreover, the bladder wet weight entry in series [1] (Groups B: 3 mg/kg and 10 mg/kg oral once a day, FIG. 4) is listed as “in the direction of increasing”. Moreover, in series [1] (Groups B: 3 mg/kg and 10 mg/kg oral once a day, FIG. 5), the kidney wet weight entry is recorded as “in the direction of increasing”. Besides, the survival rate result in series [1] (Groups B: 3 mg/kg and 10 mg/kg oral once a day, FIG. 6) is recorded as “decreased”.

Regarding `C[C@]12C=CC(=O)N[C@@H]1CC[C@@H]1[C@@H]2CC[C@]2(C)[C@@H](C(=O)Nc3cc(C(F)(F)F)ccc3C(F)(F)F)CC[C@@H]12` [Compound C, dutasteride, reference compound], the “therapeutic effect on diabetes (blood glucose level)” value in series [2] (Group C0.3: 0.3 mg/kg oral, 4 weeks) is “no therapeutic effect on diabetes”. In series [2] (setting [4]), the “Dorsolateral prostate (atrophy rate)” value was “(37.5%)”, the “Ventral prostate (atrophy rate)” value is listed as “(42.7%)” and the “Whole prostate (atrophy rate)” value is “(40.7%)”. The “bladder contraction force on urination by nomogram analysis (distance from the origin)” value in series [2] (Group C0.3: 0.3 mg/kg, FIG. 21) is recorded as “almost the same position as the solvent group”. The residual urine volume result in series [2] (Group C0.3: 0.3 mg/kg, cystometry under awake condition, vs solvent group, FIG. 19) is given as “did not statistically affect”. Moreover, in series [2] (Group C0.3: 0.3 mg/kg, cystometry under awake condition, vs solvent group, FIG. 20), the urination efficiency result was “did not statistically affect”.

Take `CC#C[C@]1(O)CC[C@H]2[C@@H]3CCC4=CC(=O)CCC4=C3[C@@H](c3ccc(N(C)C)cc3)C[C@@]21C` [Compound D, mifepristone, reference compound]: the inhibition – broadly, how much of the control response was suppressed – at 3 mg/kg in series [3] amounted to 89.5%.

Source of the values: patent US12458650B2, “Urination disorder-improving agent” (ASKA Pharmaceutical Co., Ltd., priority 2019, dated 2025).
